Laboratory results taken from US12589103B2, “Antimicrobial and antiviral effects of C2-C7 alkyl boronic acids” (CORNELL UNIVERSITY, priority 2019, dated 2026).
“Also recorded” adds a separate entry of the source.

Assays:
[1] = 8-week toxicity study in mice, drinking water; type: in vivo, C57/B18 mice; conditions: mouse, in vivo
Method: The toxicity of boric and ethylboronic acids were examined with C57/B18 mice. At concentrations of 0, 10, 20, and 40 mM, the two chemicals were given to each group (6 mice) in drinking water. The body weight of each mouse was recorded weekly for 8 weeks, and fecal samples were also collected weekly for 16s sequencing. All animals were sacrificed at the end of 8th week. The length of whole intestine and ileum of each mouse was measured, and sections of the intestine (i. e. small intestine, ileum, cecum, and large intestine) were taken for histopathological and FISH analysis. Fecal samples were used for 16s and lipocalin analysis.
For lipocalin analysis, mouse fecal pellets were collected and frozen at −80 C during toxicity study. To determine lipocalin activity fecal pellets were diluted in microfuge tubes 1/30 with 0.1% Tween20/PBS and vortexed for 20 min at maximum speed. Undissolved particles were removed by centrifuging at 12,000 rpm for 10 min at 4 C. Supernatant was removed and placed into a clean microfuge tube. Lipocalin activity was determined using Mouse Lipocalin-2/NGAL DuoSet ELISA Kit (R&D Systems, DY1857) per manufacturer's instructions.

[2] = DSS induced colitis in mice; type: in vivo, C57BL mice; conditions: 40 mM in drinking water after DSS (3%)
Method: On the basis of favorable in vivo toxicity tests, the ability of BA and EBA to reduce the severity of inflammation in murine models of microbially driven IBD was tested. The effect of BA and EBA (40 mM) on intestinal inflammation was evaluated in mice with dextran sodium sulfate (“DSS”) induced colitis. The DSS model has a complex etiopathogenesis that involves host-immune and inflammatory responses and the enteric microbiome BA To test their protecting ability to the gastrointestinal tract, boric and ethylboronic acid were given to C57BL mice at 40 mM concentration respectively in drinking water after DSS (3%) treatment. Body weight and fecal samples were taken before and after 6-day treatment. At the 6th day, all mice were euthanized for gross necropsy and histopathology. Intestinal sections were collected and embedded for pathological and FISH analysis. Fecal samples were used for 16s and lipocalin analysis.

[3] = system: AIEC E. coli (541-1, LF82) virulence genes; test: Virulence gene expression of AIEC (qRT-PCR); type: cell-based; conditions: 30 mM
Method: Total RNA was extracted using the Qiagen RNAProtect-RNeasy Kit per manufacturer's protocol. Total RNA was treated with TURBO DNA-Free Kit (Ambion), followed by a two-step qRT-PCR analysis, using Qiagen's QuantiTect Reverse Transcription Kit and QuantiNova SYBR Green PCR Kit. Each qPCR reaction contained 1 μl of cDNA, 0.7 μl of each forward and reverse primers (10 μM), 5 μL of 2× SYBR Green Master Mix, 1 μl of QN ROX Reference Dye and […] of nuclease-free water to make the total volume of 10 μl. The reaction was run with ABI7000 (Applied Biosystems). […] The relative change of a targeted gene expression was calculated by using the equation RQ=2^−ΔΔCT.

[4] = system: AIEC in murine macrophage J774A.1 cells; test: Uptake and survival of AIEC in J774A.1 macrophages; type: cell-based, E. coli
[5] = system: diarrheagenic E. coli and APEC; test: Growth of diarrheagenic and APEC E. coli in LB media; type: cell-based; conditions: 30 mM
Method: (§1) The control sample contained 40 mM NaCl.
Diarrheagenic E. coli pathogroups differ by their preferential host colonization sites, virulence mechanisms, and clinical symptoms.

AIEC E. coli = conditions: complex media lacking ethanolamine or fucose
[6] = system: Feline Infectious Peritonitis Virus (FIPV) Black (TN-406); test: FIPV replication and syncytium formation, immunofluorescence; type: cell-based, Feline Coronavirus type I; conditions: 10, 20, 30, 40 mM; Feline Lung cells, 18 h post-infection
[7] = system: AIEC and cancer associated E. coli; test: Soft agar motility assay, E. coli; type: cell-based; conditions: 10 h, AIEC NC101, 541-1, cancer associated E. coli
Method: The ability of ABA C1-3 and BA to impact the motility of E. coli and Salmonella was evaluated using sloppy agar treated with and without BA and C1-C3 alkyl boronic acids. Motility is strongly linked to the virulence phenotype of these bacterial strains. E. coli was grown overnight at 37° C. in LB broth. Soft agar plates (1% tryptone, 0.5% NaCl, 0.25% agar) were prepared the day before the assay was carried out. Sterile NaCl (control), boric or boronic acid stock solution was added into the agar right before pouring the plates. The overnight cultures of E. coli were transferred (3 μl) on to the center of each plate, followed by incubation of the plates at 37° C. for 10 h. E. coli motility was quantified by measuring the diameter of the circular swarming area formed by the growing motile bacteria.

nF-κB = test: E. coli induced nF-κB activation in HEK-Blue KD-TLR5 cells (SEAP reporter); type: cell-based; conditions: m.o.i 20, SEAP at 24 h
Method: HEK-Blue KD-TLR5 cells were used to detect the promotor activation of nF-κB by E. coli infection with or without boric or boronic acid treatment. nF-κB is the prototypical transcription factor for pro-inflammatory cytokines in epithelium. Briefly, cells were seeded in 96-well plates at a density of 5×10^4 cells per well. E. coli was diluted into fresh cell medium containing either NaCl (Control), boric or boronic acid at an m.o.i of 200 as 10× inocula, followed by addition of this inoculum (10 μl) into each well containing 100 μl of medium for a final m.o.i of 20. At 3 h post infection, the cell medium was carefully removed from each well, and replaced with 100 μl of fresh medium containing gentamycin (200 μg mL^−1). At 24 h post infection, the spent medium was collected, and centrifuged at 12,000 r.p.m. for 5 min to remove any particulate matter. QUANTI-Blue Kit (InvivoGen, San Diego, CA, USA) was used to detect the reporter protein SEAP (secreted alkaline phosphatase) following the manufacturer's instructions.

FIPV = conditions: known drugs; cited from earlier work
[8] = system: Gram Positive aerobes and probiotic species (Lactobacillus, Bifidobacteria); test: Bacterial growth panel, impact on non-target species (selectivity); type: cell-based; conditions: for selectivity against Probiotic spp: compared with BA
[9] = system: enteric pathogens (E. coli, Salmonella, Listeria monocytogenes, Klebsiella); test: Bacterial growth panel, OD600 growth-curve AUC ratio (heat map); type: cell-based; conditions: for antibacterial activity / potency against enteric pathogens (growth, AUC+test compound:AUC−test compound): 40 mM (BA, EBA, PBA), 20 mM (BBA), 10 mM (PeBA), 5 mM (HBA, SBA), 1 mM (OBA), 0.5 mM (DBA), 2 mM (DoDBA), 20 mM (FMPBA), 24-48 hrs; for selectivity for Gram Negative enteropathogens: growth panel
Henle-407 cells = conditions: higher concentrations
Feline Lung cells = test: Cytotoxicity in FIPV infected Feline Lung cells
Listeria monocytogenes = test: Bacterial growth panel, Listeria; type: cell-based
Method: as §1
Growth of bacteria with or without addition of C2-C8 C10, and C12 alkyl boronic acids, BA, or FMPBA was monitored by readings at OD600. […] The area under the curve (“AUC”) of the growth curve was calculated and the results were expressed as AUC+test compound:AUC−test compound.

[10] = system: probiotic Lactobacillus spp; test: Growth of probiotic Lactobacillus strains; conditions: three Lactobacillus strains

## OB(O)O [BA, Boric acid, reference compound]
[1]
  fecal 16S profiles: not significantly different from control mice
[2]
  colon length in DSS colitis versus control mice: significantly different
  fecal lipocalin levels in DSS colitis versus control mice: significantly different
  intestinal bleeding in DSS colitis: observed
[2]; 6-day treatment
  body weight in DSS colitis: reduced
[3]
  pduC expression in 541-1: Upregulation
  pduC expression in LF-82: Upregulation
[4]; 30 mM during infection, 24 h post infection
  survival of AIEC in J774A.1 macrophages: inhibited the survival
[4]; 30 mM, 1 h
  uptake of AIEC by J774A.1 macrophages: inhibited the uptake
[5]
  inhibition of growth of diarrheagenic and APEC E. coli: have activity versus the diarrheagenic E. coli and APEC that varies by pathogroup
AIEC E. coli
  suppression of AIEC growth in complex media: effective in suppressing AIEC growth
[6]
  replication and syncytium formation of FIPV: able to inhibit replication and syncytium formation
[7]
  motility of E. coli: had less impact
nF-κB
  induction of nF-κB by E. coli: reduced the induction of nF-κB by E. coli

## N#C[C@@]1(c2ccc3c(N)ncnn23)O[C@H](CO)[C@@H](O)[C@H]1O [GS-441524]
FIPV
  efficacy against FIPV: some efficacy against FIPV

## Cc1ccc(B(O)O)c(F)c1 [FMPBA, 2-fluro-4-methlyphenylboronic acid, reference compound]
[8]; same concentrations as growth panel
  selectivity: impact on Gram Positive aerobes and probiotic species: not selective and killed more Gram Positive aerobes and probiotic species than C2-C7 alkyl boronic acid compounds; also recorded: minimally selective
[9]
  antibacterial activity / potency against enteric pathogens (growth, AUC+test compound:AUC−test compound): more generalized and potent antibacterial activity than C2-C7 alkyl boronic acid compounds; also recorded: bacteriocidal

## CCCCCB(O)O [PeBA, pentyl boronic acid]
Henle-407 cells
  cytotoxicity in Henle cells: cytotoxic at higher concentrations

## CCCCCCCCB(O)O [OBA, octyl boronic acid, reference compound]
[9]
  antibacterial activity / potency against enteric pathogens (growth, AUC+test compound:AUC−test compound): marked decrease in antibacterial activity
[9]; listed as ABA C8
  antibacterial activity / potency against enteric pathogens (growth, AUC+test compound:AUC−test compound): much less potency than C2-C7 alkyl boronic acids

## CCCCCCCCCCB(O)O [DBA, decyl boronic acid, reference compound]
[9]
  antibacterial activity / potency against enteric pathogens (growth, AUC+test compound:AUC−test compound): marked decrease in antibacterial activity
[9]; listed as C10
  antibacterial activity / potency against enteric pathogens (growth, AUC+test compound:AUC−test compound): much less potency than C2-C7 alkyl boronic acids

## CCCCCCB(O)O [HBA, hexyl boronic acid]
[8]
  selectivity against Probiotic spp: more selective than BA
Feline Lung cells
  cytotoxicity in antiviral assay: Cytotoxicity was observed
[9]
  antibacterial activity / potency against enteric pathogens (growth, AUC+test compound:AUC−test compound): high potency vs enteropathogens while somewhat sparing probiotic species
  selectivity for Gram Negative enteropathogens: highest
[6]
  replication and syncytium formation of FIPV: inhibited replication and syncytium formation of FIPV in infected cells; also recorded: antiviral activity was observed at lower doses without cytotoxicity
Listeria monocytogenes
  selectivity of activity against Listeria monocytogenes: selectivity apparent
Henle-407 cells
  cytotoxicity in Henle cells: cytotoxic at higher concentrations

## CB(O)O [MBA, methyl boronic acid, reference compound]
[10]
  growth of probiotic Lactobacillus spp: do not suppress growth
[7]
  motility of E. coli: had less impact

## CCCCCCCB(O)O [SBA, heptyl boronic acid]
[9]
  selectivity for Gram Negative enteropathogens: highest

## CCCCB(O)O [BBA, butyl boronic acid]
[8]
  selectivity against Probiotic spp: more selective than BA
Feline Lung cells
  cytotoxicity in antiviral assay: Cytotoxicity was observed
[9]
  antibacterial activity / potency against enteric pathogens (growth, AUC+test compound:AUC−test compound): high potency vs enteropathogens while somewhat sparing probiotic species
  selectivity for Gram Negative enteropathogens: highest
[6]
  replication and syncytium formation of FIPV: inhibited replication and syncytium formation of FIPV in infected cells; also recorded: antiviral activity was observed at lower doses without cytotoxicity
Listeria monocytogenes
  selectivity of activity against Listeria monocytogenes: selectivity apparent
